Test results from publication PMC7717600, “Novel [(N-alkyl-3-indolylmethylene)hydrazono]oxindoles arrest cell cycle and induce cell apoptosis by inhibiting CDK2 and Bcl-2: synthesis, biological evaluation and in silico studies” (Journal of Enzyme Inhibition and Medicinal Chemistry, 2020).

Experiments:
CDK5 = test system: CDK5; parameters: method as in PMID 11439342; details: CDK5 ref 4; cited from earlier work
CDK1 = test system: CDK1; parameters: method as in PMID 11439342; details: CDK1 ref 4; cited from earlier work
CDK2 = CDK2 (Homo sapiens, UniProt P24941); details: CDK2 ref 4; cited from earlier work
A-549 = assay: SRB anti-proliferative assay; format: cell-based; details: Homo sapiens, A549; A-549, SRB, mean ± SE of 3
Protocol: Staurosporine, a clinically used antitumor drug, was co-assayed as a reference agent for the experiment.
(§1) Examination of the cytotoxic activity for the target conjugates was carried out in accordance with the SRB colorimetric assay protocol, as described previously.
(§2) In vitro anti-proliferative activity assay
(§3) Cells at a concentration of 0.50 x
(§4) Sulfo-Rhodamine-B stain (SRB) assay.
(§5) cell to the wall of the plate.
(§6) wells were prepared for each individual dose).
(§7) Unbound dye was removed by four

MDA-MB-231 = assay: SRB anti-proliferative assay; format: cell-based; details: Homo sapiens; MDA-MB-231, SRB, mean ± SE of 3
Protocol: (§8) All the newly prepared target conjugates (7, 8a–c, 9 and 10a–e) were investigated for the prospective growth inhibitory actions against three different cancer cell lines viz.; A-549, MDA-MB-231, and HCT-116, using the sulforhodamine B colorimetric (SRB) assay. Staurosporine, a clinically used antitumor drug, was co-assayed as a reference agent for the experiment.
as §1, §2, §3, §4, §5, §6, §7

HCT-116 = assay: SRB anti-proliferative assay; format: cell-based; details: Homo sapiens; HCT-116, SRB, mean ± SE of 3
Protocol: as §8, §1, §2, §3, §4, §5, §6, §7

IC50 (A-549)	IC50 (MDA-MB-231)	IC50 (HCT-116)	Compound	IC50 (CDK5)	IC50 (CDK1)	IC50 (CDK2)
40.2 ± 1.88 µM	51.8 ± 3.77 µM	37.4 ± 2.06 µM	C=CCn1cc(/C=N/N=C2\C(=O)Nc3ccc(OC(F)(F)F)cc32)c2ccccc21 [Compound 10e]			
59.9 ± 3.58 µM	54 ± 4.17 µM	36.3 ± 2.35 µM	C=CCn1cc(C=NN=C2C(=O)Nc3ccc(F)cc32)c2ccccc21 [Compound 10b]			

Further lines, the compound ahead of its results:

Compound	IC50 (A-549)	IC50 (MDA-MB-231)	IC50 (HCT-116)	IC50 (CDK5)	IC50 (CDK1)	IC50 (CDK2)
O=C1Nc2ccccc2/C1=C1/Nc2ccccc2C1=NO [Indirubin-3′-oxime]				0.25 µM	0.18 µM	0.5 µM
COc1cccc2c1C(=O)c1c(O)c3c(c(O)c1C2=O)C[C@@](O)(C(=O)CO)C[C@@H]3O[C@H]1C[C@H](N)[C@H](O)[C@H](C)O1 [Dox., doxorubicin, reference compound]	2.3 ± 0.17 µM	4.5 ± 0.29 µM	3.7 ± 0.24 µM			
CCn1cc(C=NN=C2C(=O)Nc3ccc(Cl)cc32)c2ccccc21 [Compound 7]	50 ± 3.37 µM	27.6 ± 1.76 µM	19.7 ± 1.28 µM			
